Source: patent US20230047816A1 (priority 2018, published 2023)

Target: Recombinant full length human PFKFB3 (Homo sapiens, UniProt Q16875)
Experiment: PFKFB3 kinase activity assay (ADP production, ADP-Glo)
Experimental: Recombinant full length human PFKFB3 (or PFKFB4) protein purified from Sf9 baculoviral system was acquired from SignalChem (Cat. #P323-30G or P324-30G). ATP, Fructose-6-Phosphate and other chemicals were from Sigma-Aldrich. The kinase activity of the PFKFB3 (PFKFB4) protein was detected by measuring production of ADP from ATP in the presence of the Fructose-6-Phosphate substrate. The kinase reactions were assembled in 384 well plates in a total volume of 25 μL. Test compounds were serially diluted in DMSO. Reactions were set up by first mixing test compounds with enzyme and pre-incubating for 15 min. The ATP and Fructose-6-Phosphate substrates were next added to initiate the kinase reactions.
The compounds of invention listed below in this example were tested at various concentrations (which also added 1% DMSO from compounds, to the final solution) as described below. The kinase reactions were allowed to proceed for 1 h at room temperature. Aliquots of the reaction mixtures (5 μL) were transferred to fresh white 384 well plates and mixed with 5 μL of the ADP-Glo reagent (Promega), followed by incubation for 30 min. The luminescent Kinase Detection reagent was added (10 μL) and, following additional incubation for 15 min, the plates were read on luminescence plate reader (Analyst HT). Positive (100%-inhibition) and negative (0%-inhibition) control samples were assembled in each assay plate and were used to calculate percent inhibition values of test compounds. All experiments were performed in duplicate.

Sequence of Recombinant full length human PFKFB3 (Q16875 whole entry): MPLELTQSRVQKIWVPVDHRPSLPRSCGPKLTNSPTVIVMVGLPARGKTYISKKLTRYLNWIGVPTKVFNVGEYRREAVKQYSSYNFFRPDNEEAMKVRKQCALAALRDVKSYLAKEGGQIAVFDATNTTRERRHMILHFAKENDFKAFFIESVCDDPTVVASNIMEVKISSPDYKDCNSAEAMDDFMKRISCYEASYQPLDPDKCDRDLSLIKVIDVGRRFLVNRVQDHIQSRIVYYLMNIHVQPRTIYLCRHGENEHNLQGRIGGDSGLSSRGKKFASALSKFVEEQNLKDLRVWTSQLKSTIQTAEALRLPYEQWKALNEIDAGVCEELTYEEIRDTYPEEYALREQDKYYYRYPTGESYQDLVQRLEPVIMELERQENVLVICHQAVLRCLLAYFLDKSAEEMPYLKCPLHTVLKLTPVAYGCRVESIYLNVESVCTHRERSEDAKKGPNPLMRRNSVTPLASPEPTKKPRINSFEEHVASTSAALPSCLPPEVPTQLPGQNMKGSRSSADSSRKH

SMILES | IC50
COC(=O)c1cc(-c2ccccc2)ccc1N1C(=O)c2ccc(C(=O)NS(=O)(=O)c3ccccc3)cc2C1=O [compound 152, methyl 4-(1,3-dioxo-5-(phenylsulfonylcarbamoyl)isoindolin-2-yl)biphenyl-3-carboxylate] | < 20 µM
COc1ccc(-c2c(C)sc(NC(=O)c3ccc(C(=O)O)cc3C(=O)O)c2C#N)cc1 [Example 30, 4-{[3-cyano-4-(4-methoxyphenyl)-5-methylthiophen-2-yl]carbamoyl}benzene-1,3-dicarboxylic acid] | < 0.5 µM
CCOC(=O)c1ccc(-c2ccc(F)c(F)c2)cc1N1Cc2ccc(CO)cc2C1=O [compound 159, ethyl 3′,4′-difluoro-3-(6-(hydroxymethyl)-1-oxoisoindolin-2-yl)biphenyl-4-carboxylate] | < 20 µM
COc1ccc(-c2ccc(C(=O)O)c(N3C(=O)c4ccc(C(=O)O)cc4C3=O)c2)cc1 [Example 55] | < 0.5 µM
O=C(O)c1ccc(-c2cccnc2)cc1N1C(=O)c2ccc(-c3c[nH]nn3)cc2C1=O [Example 49] | 2 to 5 µM
CS(C)(=O)=NC(=O)c1ccc(C(=O)O)c(C(=O)Nc2cc(-c3ccc(F)c(F)c3)ccc2C(=O)O)c1 [Example 36, 3-(2-carboxy-5-{[methyl(methylidene)oxo-λ^6-sulfanyl]carbamoyl}benzamido)-3′,4′-difluoro-[1,1′-biphenyl]-4-carboxylic acid] | 0.5 to 2 µM
O=C(O)c1ccc(C(=O)O)c(C(=O)Nc2nc(-c3ccccc3)cs2)c1 [Example 40, 2-[(4-phenyl-1,3-thiazol-2-yl)carbamoyl]benzene-1,4-dicarboxylic acid] | < 20 µM
CC1(C)CCC(c2ccc(C(=O)O)c(NC(=O)c3cc(O)c(C(=O)O)cc3C(=O)O)c2)CC1 [Example 52, 4-{[2-carboxy-5-(4,4-dimethylcyclohexyl)phenyl]carbamoyl}-6-hydroxybenzene-1,3-dicarboxylic acid] | < 0.5 µM
CCCCOC(=O)c1ccc2c(c1)C(=O)N(c1cc(-c3ccc(F)c(F)c3)ccc1C(N)=O)C2 [Compound 123, 2-(4-Carbamoyl-3′,4′-difluorobiphenyl-3-yl)-3-oxo-2,3-dihydro-1H-isoindole-5-carboxylic acid butyl ester] | < 20 µM
NC(=O)c1ccc(-c2ccc(F)c(F)c2)cc1N1Cc2ccc(-c3c[nH]nn3)cc2C1=O [Compound 113, 3′,4′-Difluoro-3-[1-oxo-6-(1H-[1,2,3]triazol-4-yl)-1,3-dihydroisoindol-2-yl]biphenyl-4-carboxylic acid amide] | < 20 µM
O=C(O)c1ccc(-c2ccc(F)cc2)cc1N1C(=O)c2ccc(-c3c[nH]nn3)cc2C1=O [Example 57] | 2 to 5 µM
O=C(OCCN1CCOCC1)c1ccc(-c2ccccc2)cc1N1C(=O)c2ccc(-c3c[nH]nn3)cc2C1=O [Example 67] | 5 to 20 µM
O=C(OCC(O)CO)c1ccc(-c2ccccc2)cc1N1C(=O)c2ccc(-c3c[nH]nn3)cc2C1=O (centres unmarked) [Compound 70, 3-[1,3-Dioxo-5-(1H-[1,2,3]triazol-4-yl)-1,3-dihydroisoindol-2-yl]biphenyl-4-carboxylic acid 2,3-dihydroxy-propyl ester] | 5 to 20 µM
O=C(O)c1cc(-c2cn[nH]c2)ccc1N1C(=O)c2ccc(-c3c[nH]nn3)cc2C1=O [Compound 71, 2-[1,3-Dioxo-5-(1H-[1,2,3]triazol-4-yl)-1,3-dihydroisoindol-2-yl]-5-(1H-pyrazol-4-yl)-benzoic Acid] | 0.5 to 2 µM
O=C(O)c1ccc2c(c1)C(=O)N(c1cc(-c3ccc(Cl)cc3Cl)ccc1C(=O)O)C2=O [Compound 142, 2-(4-Carboxy-2′,4′-dichloro[1,1′-biphenyl]-3-yl)-1,3-dioxo-2,3-dihydro-1H-isoindole-5-carboxylic acid] | < 0.5 µM
COc1cc(N2C(=O)c3ccc(C(=O)O)cc3C2=O)ccc1-c1ccccc1 [Example 1] | 5 to 20 µM
COc1ccc(-c2c(C)sc(N3C(=O)c4ccc(C(=O)NS(C)(=O)=O)cc4C3=O)c2C#N)cc1 [Example 14] | 0.5 to 2 µM
O=C(O)c1ccc(C(=O)Nc2cc(-c3ccccc3)ccc2C(=O)O)c(C(=O)O)c1 [Example 5, 4-({4-carboxy-[1,1′-biphenyl]-3-yl}carbamoyl)benzene-1,3-dicarboxylic acid] | 0.5 to 2 µM
COc1ccc(-c2c(C)sc(N3C(=O)c4ccc(C(=O)N[C@@H](CO)C(=O)O)cc4C3=O)c2C#N)cc1 [Example 16] | 2 to 5 µM
CC(C)(C)C(=O)OCn1cc(-c2ccc3c(c2)C(=O)N(c2ccc(-c4ccccc4)cc2C(=O)O)C3=O)nn1 [Example 30] | 2 to 5 µM
COc1ccc(-c2nnn[nH]2)c(N2C(=O)c3ccc(C(=O)O)cc3C2=O)c1 [Example 47, 2-[5-Methoxy-2-(1H-tetrazol-5-yl)phenyl]-1,3-dioxo-2,3-dihydro-1H-isoindole-5-carboxylic acid] | 0.5 to 2 µM

SMILES | IC50
NC(=O)c1ccc(-c2ccccc2)cc1N1C(=O)c2ccc(-c3c[nH]nn3)cc2C1=O [Compound 93, 3-[1,3-Dioxo-5-(1H-[1,2,3]triazol-4-yl)-1,3-dihydroisoindol-2-yl]biphenyl-4-carboxylic acid amide] | 5 to 20 µM
O=C(O)c1cc(-c2cnn[nH]2)c(Cl)cc1NC(=O)c1cc(-c2ccc(F)c(F)c2)ccc1C(=O)O [Example 19, 3-((2-carboxy-5-chloro-4-(1H-1,2,3-triazol-5-yl)phenyl)carbamoyl)-3′,4′-difluoro-[1,1′-biphenyl]-4-carboxylic acid] | < 0.5 µM
COc1cc2c(cc1C(=O)O)C(=O)N(c1cc(-c3ccc(F)c(F)c3)ccc1C(=O)O)C2=O [compound 170, 2-(4-carboxy-3′,4′-difluoro[1,1′-biphenyl]-3-yl)-6-methoxy-1,3-dioxo-2,3-dihydro-1H-isoindole-5-carboxylic acid] | < 0.5 µM
COC(=O)c1ccc(-c2ccccc2)cc1N1Cc2ccc(C(=O)O)cc2C1=O [Compound 102, 2-(4-Methoxycarbonylbiphenyl-3-yl)-3-oxo-2,3-dihydro-1H-isoindole-5-carboxylic Acid] | < 20 µM
O=C1c2ccc(-c3c[nH]nn3)cc2C(=O)N1c1ccc(-c2ccccc2)cn1 [Compound 86, 2-(5-Phenylpyridin-2-yl)-5-(1H-[1,2,3]triazol-4-yl)-isoindole-1,3-dione] | < 20 µM
COC(=O)c1ccc(-c2ccc(F)c(F)c2)cc1N1Cc2ccc(CO)cc2C1=O [compound 157, methyl 3′,4′-difluoro-3-(6-(hydroxymethyl)-1-oxoisoindolin-2-yl)biphenyl-4-carboxylate] | < 20 µM
O=C(O)c1cc(C(=O)O)c(C(=O)Nc2cc(-c3ccc(F)c(F)c3)ccc2C(=O)O)cc1O [Example 16, 4-({4-carboxy-3′,4′-difluoro-[1,1′-biphenyl]-3-yl}carbamoyl)-6-hydroxybenzene-1,3-dicarboxylic acid] | < 20 µM
O=C(O)c1cc(-c2cnn[nH]2)ccc1CNc1cc(-c2ccc(F)c(F)c2)ccc1C(=O)O [Example 6, 3-({[2-carboxy-4-(2H-1,2,3-triazol-4-yl)phenyl]methyl}amino)-3′,4′-difluoro-[1,1′-biphenyl]-4-carboxylic acid] | < 0.5 µM
Cc1ccc(S(=O)(=O)Nc2ccc3c(c2)C(=O)N(c2cc(-c4ccc(F)c(F)c4)ccc2C(=O)O)C3)cc1 [Compound 132, 3′,4′-Difluoro-3-[1-oxo-6-(toluene-4-sulfonylamino)-1,3-dihydro-isoindol-2-yl]-biphenyl-4-carboxylic acid] | 5 to 20 µM
COC(=O)c1ccc(-c2ccccc2)cc1N1Cc2ccc(C(=O)NS(C)(=O)=O)cc2C1=O [Compound 103, 3-(6-Methanesulfonylaminocarbonyl-1-oxo-1,3-dihydroisoindol-2-yl)biphenyl-4-carboxylic acid methyl ester] | < 20 µM
CCOC(=O)c1ccc(-c2ccc(F)c(F)c2)cc1N1C(=O)c2ccc(-c3cnn[nH]3)cc2C1=O [compound 167, ethyl 3-[1,3-dioxo-5-(1H-1,2,3-triazol-5-yl)-1,3-dihydro-2H-isoindol-2-yl]-3′,4′-difluoro[1,1′-biphenyl]-4-carboxylate] | < 20 µM
CCOC(=O)c1ccc(-c2ccc(Cl)cc2Cl)cc1NC(=O)c1cc(C(=O)O)c(O)cc1C(=O)O [Example 60, 2-{[2′,4′-dichloro-4-(ethoxycarbonyl)-[1,1′-biphenyl]-3-yl]carbamoyl}-5-hydroxybenzene-1,4-dicarboxylic acid] | < 0.5 µM
NC(=O)c1ccc2c(c1)C(=O)N(c1cc(-c3ccccc3)ccc1C(=O)O)C2=O [Example 28] | 0.5 to 2 µM
CN(C)C(=O)c1cc(O)c(C(=O)N=S(C)(C)=O)cc1C(=O)Nc1cc(-c2ccc(Cl)cc2Cl)ccc1C(=O)O [Example 42, 2′,4′-dichloro-3-(5-((dimethyl(oxo)-λ^6-sulfanylidene)carbamoyl)-2-(dimethylcarbamoyl)-4-hydroxybenzamido)-[1,1′-biphenyl]-4-carboxylic acid] | 2 to 5 µM
COC(=O)c1ccc(-c2ccc(F)c(F)c2)cc1N1Cc2ccc(C(=O)NS(C)(=O)=O)cc2C1=O [Compound 105, 3′,4′-Difluoro-3-(6-methanesulfonylaminocarbonyl-1-oxo-1,3-dihydroisoindol-2-yl)biphenyl-4-carboxylic acid methyl ester] | < 20 µM
O=C(O)c1ccc(-c2cnn[nH]2)cc1CNc1cc(-c2ccc(F)c(F)c2)ccc1C(=O)O [Example 7, 3-({[2-carboxy-5-(2H-1,2,3-triazol-4-yl)phenyl]methyl}amino)-3′,4′-difluoro-[1,1′-biphenyl]-4-carboxylic acid] | 5 to 20 µM
CC(C)OC(=O)c1ccc(-c2ccc(F)c(F)c2)cc1N1Cc2ccc(-c3c[nH]nn3)cc2C1=O [Compound 118, 3′,4′-Difluoro-3-[1-oxo-6-(1H-[1,2,3]triazol-4-yl)-1,3-dihydro-isoindol-2-yl]-biphenyl-4-carboxylic acid isopropyl ester] | < 20 µM
O=C(O)c1ccc2c(c1)C(=O)N(c1cc(-c3ccc(F)cc3)ccc1C(=O)O)C2=O [Example 45] | < 0.5 µM
O=C(O)c1ccc2c(c1)C(=O)N(c1ccc(-c3ccccc3)cc1CO)C2=O [Example 4] | 2 to 5 µM
COC(=O)c1ccc2c(c1)C(=O)N(c1cc(-c3ccc(F)c(F)c3)ccc1C(=O)OC)C2 [Compound 127, 2-(3′,4′-Difluoro-4-methoxycarbonylbiphenyl-3-yl)-3-oxo-2,3-dihydro-1H-isoindole-5-carboxylic acid methyl ester] | < 20 µM
